Data: US20080293727A1, “Novel sulfonamide inhibitors of aspartyl protease” (priority 1992, published 2008)

Target: HIV-1 protease (Human immunodeficiency virus type 1 group M subtype B, UniProt P04585)
Test: Inhibition constants against HIV-1 protease (method of Pennington et al.)
Type: biochemical
Conditions: HIV-1 protease; read-out: Ki value
Text: We measured the inhibition constants of the compounds listed in Table VII against HIV-1 protease using the above-cited method of Pennington et al.

Row | Structure (SMILES) | Ki [nM]
1 | CC(C)CN(C[C@@H](O)[C@H](Cc1ccccc1)NC(=O)[C@H](CC(N)=O)NC(=O)c1ccc2ccccc2n1)S(=O)(=O)c1cccc2nonc12 [Compound 20, (S)-N-1-(3-((Benzo(1,2,5)oxadiazole-4-sulfonyl)-isobutyl-amino)-(1S,2 syn)-1-benzyl-2-hydroxy-propyl)-2-((quinoline-2-carbonyl)-amino)-succinamide] | 0.1
2 | CC(C)CN(C[C@@H](O)[C@H](Cc1ccccc1)NC(=O)OCc1ccccc1)S(=O)(=O)c1ccc(F)cc1 [Compound 38] | 1.5
3 | COc1ccc(S(=O)(=O)N(C[C@@H](O)[C@H](Cc2ccccc2)NC(=O)O[C@H]2CCOC2)C2CCNCC2)cc1 [Compound 1011] | 1500
4 | COc1ccc(S(=O)(=O)N(C[C@@H](O)[C@H](Cc2ccccc2)NC(=O)O[C@H]2CCOC2)CC(C)(C)O)cc1 [Compound 1010] | 20
5 | O=C(N[C@@H](Cc1ccccc1)[C@H](O)CN(CC1CCCC1)S(=O)(=O)c1ccc(Cl)c(Cl)c1)O[C@H]1CCOC1 [Compound 183, 3,4-Dichloro-N-cyclopentylmethyl-N-((2 syn,3S)-2-hydroxy-4-phenyl-3-((S)-tetrahydrofuran-3-yloxycarbonylamino)-butyl)-benzenesulfonamide] | 0.1
6 | COc1ccc(COC(=O)N[C@@H](Cc2ccccc2)[C@H](O)CN(CC2CCCC2)S(=O)(=O)c2ccc(OC)cc2)cc1 [Compound 177] | < 0.1
7 | CC(=O)Nc1ccc(S(=O)(=O)N(CC(C)C)C[C@@H](O)[C@H](Cc2ccccc2)NC(=O)[C@@H]2CC(=O)NC(=O)N2)cc1 [Compound 40] | 1100
8 | COc1ccc(S(=O)(=O)N(CC2CCCC2)C[C@@H](O)[C@H](Cc2ccccc2)NC(=O)O[C@@H]2CCN(C(=O)OC(C)(C)C)C2)cc1 [Compound 184] | 5
9 | NC(=O)C[C@H](NC(=O)c1ccc2ccccc2n1)C(=O)N[C@@H](Cc1ccccc1)[C@H](O)CN(Cc1ccccc1)S(=O)(=O)c1ccccc1 [Compound 1] | 4
10 | CC(=O)Nc1cccc(S(=O)(=O)N(CC(C)C)C[C@@H](O)[C@H](Cc2ccccc2)NC(=O)[C@H](CC(N)=O)NC(=O)c2ccc3ccccc3n2)c1 [Compound 19, (S)-N-1-(3-((3-Acetylamino-benzenesulfonyl)-isobutyl-amino)-(1S,2 syn)-1-benzyl-2-hydroxy-propyl)-2-((quinoline-2-carbonyl)-amino)-succinamide] | < 0.1
11 | CC(C)CN(C[C@@H](O)[C@H](Cc1ccccc1)NC(=O)O[C@H]1CCOC1)S(=O)(=O)c1ccc(OC(F)(F)F)cc1 [Compound 152] | 2.5
12 | COc1ccc(S(=O)(=O)N(CC2CCCCC2)C[C@@H](O)[C@H](Cc2ccccc2)NC(=O)O[C@H]2CCOC2)cc1 [Compound 158, N-Cyclohexylmethyl-N-((2 syn,3S)-2-hydroxy-4-phenyl-3-((S)-tetrahydrofuran-3-yloxycarbonylamino)-butyl)-4-methoxy-benzenesulfonamide] | < 0.1
13 | O=C(N[C@@H](Cc1ccccc1)[C@H](O)CN(CC1CCCC1)S(=O)(=O)c1ccc(O)cc1)OCc1cccnc1 [Compound 166, N-cyclopentylmethyl-4-hydroxy-N-((2 syn,3S)-2-hydroxy-4-phenyl-3-(pyridin-3-yl-methoxycarbonylamino)-butyl)-benzenesulfonamide] | < 0.1
14 | CC(=O)Nc1ccc(S(=O)(=O)N(CC(C)C)C[C@@H](O)[C@H](Cc2ccccc2)NC(=O)C(C)(C)NC(=O)OC(C)(C)C)cc1 [Compound 189] | 5500
15 | CCOC(=O)N[C@@H](Cc1ccccc1)[C@H](O)CN(CC(C)C)S(=O)(=O)c1ccc(Cl)c(Cl)c1 [Compound 119] | 1.8
16 | CC(=O)Nc1ccc(S(=O)(=O)N(CC2CCCC2)C[C@@H](O)[C@H](Cc2ccccc2)NC(=O)O[C@H]2CCOC2)cc1 [Compound 125, N-(4-(Cyclopentylmethyl-((2 syn,3S)-2-hydroxy-4-phenyl-3-((S)-tetrahydrofuran-3-yloxycarbonylamino)-butyl)-sulfamoyl)-phenyl)-acetamide] | 0.3
17 | O=C(N[C@@H](Cc1ccccc1)[C@H](O)CN(CC1CCCC1)S(=O)(=O)c1ccc(Cl)cc1)OCc1cccnc1 [Compound 118] | < 0.1
18 | NC(=O)C[C@H](NC(=O)c1ccc2ccccc2n1)C(=O)N[C@@H](Cc1ccccc1)[C@H](O)CN(Cc1ccccc1)S(=O)(=O)c1ccc(-c2ccon2)s1 [Compound 6, (S)-N-1-(1-Benzyl-3-(benzyl-(5-isoxazol-3-yl-thiophene-2-sulfonyl)-amino)-(1S,2 syn)-1-benzyl-2-hydroxy-propyl)-2-((quinoline-2-carbonyl)-amino)-succinamide] | 3
19 | COC(=O)N[C@@H](Cc1ccccc1)[C@H](O)CN(CC(C)C)S(=O)(=O)c1ccc(NC(C)=O)cc1 [Compound 102] | 33
20 | CS(=O)(=O)N(Cc1ccccc1)C[C@@H](O)[C@H](Cc1ccccc1)NC(=O)[C@H](CC(N)=O)NC(=O)c1ccc2ccccc2n1 [Compound 8] | 850
21 | O=C(N[C@@H](Cc1ccccc1)[C@H](O)CN(CC1CCCC1)S(=O)(=O)c1ccc([N+](=O)[O-])cc1[N+](=O)[O-])O[C@H]1CCOC1 [Compound 172] | 21

Row | Structure (SMILES) | Ki [nM]
22 | CC(=O)Nc1cc(S(=O)(=O)N(CC(C)C)C[C@@H](O)[C@H](Cc2ccccc2)NC(=O)O[C@H]2CCOC2)ccc1F [Compound 88, N-(2-Fluoro-5-(((2 syn,3S)-2-hydroxy-4-phenyl-3-((S)-tetrahydrofuran-3-yloxycarbonylamino)-butyl)-isobutyl-sulfamoyl)-phenyl)-acetamide] | 1.4
23 | CC(C)CN(C[C@@H](O)[C@H](Cc1ccccc1)NC(=O)OC(C)(C)C)S(=O)(=O)c1ccccc1 [Compound 45] | 6
24 | O=C(N[C@@H](Cc1ccccc1)[C@H](O)CN(CC1CCCC1)S(=O)(=O)c1ccc(F)cc1)O[C@H]1CCOC1 [Compound 182, N-Cyclopentylmethyl-4-fluoro-N-((2 syn,3S)-2-hydroxy-4-phenyl-3-((S)-tetrahydrofuran-3-yloxycarbonylamino)-butyl)-benzenesulfonamide] | 0.2
25 | C=CCOC(=O)N[C@@H](Cc1ccccc1)[C@H](O)CN(CC1CCCC1)S(=O)(=O)c1ccc(OC)cc1 [Compound 141, N-((3-allyloxycarbonylamino)-(2 syn,3S)-2-hydroxy-4-phenyl-butyl)-N-cyclopentylmethyl-4-methoxy-benzenesulfonamide] | 0.1
26 | CC(=O)Nc1ccc(S(=O)(=O)N(CC(C)C)C[C@@H](O)[C@H](Cc2ccccc2)NC(=O)CCC(N)=O)cc1 [Compound 42] | 46
27 | C=C(COC)COC(=O)N[C@@H](Cc1ccccc1)[C@H](O)CN(CC(C)C)S(=O)(=O)c1ccc(NC(C)=O)cc1 [Compound 155, N-4-((2-(syn)-Hydroxy-3-((2-methoxymethyl-allyloxycarbonylamino)-4-(S)-phenyl-butyl)-isobutyl-sulfamoyl)-phenyl)-acetamide] | 1.7
28 | CC(C)CN(C[C@@H](O)[C@H](Cc1ccccc1)NC(=O)[C@H](CC(N)=O)NC(=O)c1ccc2ccccc2n1)S(=O)(=O)c1ccc(F)cc1 [Compound 14, (S)-N-1-(1-(S)-Benzyl-3-((4-fluoro-benzenesulfonyl)-isobutyl-amino)-2-(syn)-hydroxy-propyl)-2-((quinoline-2-carbonyl)-amino)-succinamide] | 0.1
29 | CC(=O)Nc1cc(S(=O)(=O)N(CC(C)C)C[C@@H](O)[C@H](Cc2ccccc2)NC(=O)c2cc(C(C)(C)C)nn2Cc2ccccc2)ccc1F [Compound 55] | 430
30 | CC(C)CN(C[C@@H](O)[C@H](Cc1ccccc1)NC(=O)O[C@H]1CCOC1)S(=O)(=O)c1ccc(F)c(F)c1 [Compound 124] | 1.1
31 | COc1ccc(S(=O)(=O)N(C[C@@H](O)[C@H](Cc2ccccc2)NC(=O)O[C@H]2CCOC2)CN2CCCCC2)cc1 [Compound 1013] | 1500
32 | CC(C)CN(C[C@@H](O)[C@H](Cc1ccccc1)NC(=O)O[C@H]1CCOC1)S(=O)(=O)c1ccc(F)cc1 [Compound 35, 4-Fluoro-N-((2 syn,3S)-2-hydroxy-4-phenyl-3-((S)-tetrahydrofuran-3-yloxycarbonylamino)-butyl)-N-isobutyl-benzenesulfonamide] | 4
33 | CC(=O)Nc1ccc(S(=O)(=O)N(CC(C)C)C[C@@H](O)[C@H](Cc2ccccc2)NC(=O)C[C@H]2CNC(=O)C2)cc1 [Compound 1002] | 28
34 | COc1ccc(S(=O)(=O)N(C[C@@H](O)[C@H](Cc2ccccc2)NC(=O)O[C@H]2CCOC2)CC(C)(C)CO)cc1 [Compound 1009] | 20
35 | CC(C)CN(C[C@@H](O)[C@H](Cc1ccccc1)NC(=O)OCc1ccccc1)S(=O)(=O)c1ccc(N)c([N+](=O)[O-])c1 [Compound 63] | 7
36 | COc1ccc(S(=O)(=O)N(CC2CCCO2)CC(O)C(Cc2ccccc2)NC(=O)OC2CCOC2)cc1 (centres unmarked) [Compound 1007] | 42
37 | CC(C)CN(C[C@@H](O)[C@H](Cc1ccccc1)NC(=O)O[C@H]1CCOC1)S(=O)(=O)N(C)C [Compound 69] | 42
38 | CC(=O)Nc1ccc(S(=O)(=O)N(CC(C)C)CC(O)C(Cc2ccccc2)NC(=O)OCC2COC(=O)N2)cc1 (centres unmarked) [Compound 110] | 28
39 | CC(=O)Nc1ccc(S(=O)(=O)N(CC2CCCCC2)C[C@@H](O)[C@H](Cc2ccccc2)NC(=O)O[C@H]2CCOC2)cc1 [Compound 160, N-(4-(Cyclohexylmethyl)-((2 syn,3S)-2-hydroxy-4-phenyl-3-((S)-tetrahydrofuran-3-yloxycarbonylamino)-butyl)-sulfamoyl-phenyl)-acetamide] | 1
40 | C=CCOC(=O)N[C@@H](Cc1ccccc1)[C@H](O)CN(CC(C)C)S(=O)(=O)c1ccc(OC)cc1 [Compound 154] | 0.5
41 | CC(C)CN(C[C@@H](O)[C@H](Cc1ccccc1)NC(=O)O[C@H]1CCOC1)S(=O)(=O)N1CCCCC1 [Compound 150, Piperidine-1-sulfonic acid ((2 syn,3S)-2-hydroxy-4-phenyl-3-((S)-tetrahydrofuran-3-yloxycarbonylamino)-butyl)-isobutyl-amide] | 6
